The text below walks through data of US12227520B2 (priority 2019, dated 2025).

For data set [1], the system named is pLai RLuc reporter virus. Kind of data set: microbe, parasite or virus in culture. The format is cell-based, HIV. The note with it: Human immunodeficiency virus 1, 72 h. In a few lines: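 Read-out is Renilla luciferase after 72 h at 37 °C in MT-4 cells infected 2 h beforehand with pLai RLuc reporter virus; compounds diluted 1:3.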
Data set [2] in a line: Cytotoxicity assay in MT-4 cells. The format is cell-based, human. The note with it: human, uninfected MT-4 cells, 5 days incubation; read-out: CC50. In a few lines:
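For cytotoxicity, uninfected MT-4 cells were incubated with compounds 5 days at 37 °C, with 10 μM puromycin marking base cytotoxicity. Parallel plates used HIV-1 IIIB-infected (1:250 stock dilution) or mock cells with 5 μM AZT and no-drug controls. Read-out: CellTiter-Glo chemiluminescence.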

Data set [3] deals with HIV-1 (IIIB). The data set is described as follows: Antiviral assay in MT-4 cells (HIV MT-4 antiviral assay). The format is cell-based. The note with it: Human immunodeficiency virus 1, IIIB, MT4, 120 h, HIV-1 (IIIB) in MT-4 cells, 5 days incubation. In a few lines: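 Read-out is CellTiter-Glo chemiluminescence after 5-day culture at 37° C, giving protection of MT-4 cells from HIV-1 IIIB cytopathicity. Compounds tested in 1:3 dilution series in complete RPMI; controls were no drug, mock infection and 5 μM AZT.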

Where [4] appears, read: read-out: Antiviral Serum Shift RLuc 50% HS, HS/CCM (RPMI media, 10% FBS, 50% HS, 1% P/S), 72-h incubation.
The mark [5] stands for this setting: read-out: Antiviral Serum Shift RLuc CCM, CCM (RPMI media, 10% FBS, 1% P/S), 72-h incubation.

Structures are written as SMILES. Read-outs that look alike come from different tables or passages of the source.

Regarding `O=C(NCc1ccc(F)cc1F)c1cn2c(c(O)c1=O)C(=O)N1CCCC(F)[C@H]2C1` (stereo partly drawn) [Example 172-2, (7R)—N-(2,4-difluorobenzyl)-6-fluoro-12-hydroxy-1,11-dioxo-1,4,5,6,7,11-hexahydro-3H-2,7-methanopyrido[1,2-a][1,4]diazonine-10-carboxamide], the EC50 in data set [1] (setting [4]) was 2.62 nM; in data set [1] (setting [5]), 0.417 nM; in data set [3] (read-out: EC50), 1.47 nM. For the same molecule, in data set [2], the CC50 at 5 days stood at 12800 nM.

Take `C[C@]12CCCCN(C1)C(=O)c1c(O)c(=O)c(C(=O)NCc3ccc(F)cc3F)cn12` [Example 173, (7S)—N-(2,4-difluorobenzyl)-12-hydroxy-7-methyl-1,11-dioxo-1,4,5,6,7,11-hexahydro-3H-2,7-methanopyrido[1,2-a][1,4]diazonine-10-carboxamide]: the EC50 amounted to 13.9 nM in data set [1] (setting [4]), 0.363 nM in data set [1] (setting [5]) and 1.24 nM in data set [3] (read-out: EC50). For the same molecule, the CC50 at 5 days in data set [2] was 12500 nM.

`C[C@@H]1CC[C@H](C)N2C[C@H]1n1cc(C(=O)NCc3c(F)cc(F)cc3F)c(=O)c(O)c1C2=O` [Example 174, (3S,6R,7S)-12-hydroxy-3,6-dimethyl-1,11-dioxo-N-(2,4,6-trifluorobenzyl)-1,4,5,6,7,11-hexahydro-3H-2,7-methanopyrido[1,2-a][1,4]diazonine-10-carboxamide]: the EC50 was found to be 58.4 nM in data set [1] (setting [4]), 0.346 nM in data set [1] (setting [5]) and 1.26 nM in data set [3] (read-out: EC50). In addition, the CC50 at 5 days in data set [2] came out at 11400 nM.

In the case of `C[C@@H]1CC[C@H](C)N2C[C@H]1n1cc(C(=O)NCc3ccc(F)cc3F)c(=O)c(O)c1C2=O` [Example 175, (3S,6R,7S)—N-(2,4-difluorobenzyl)-12-hydroxy-3,6-dimethyl-1,11-dioxo-1,4,5,6,7,11-hexahydro-3H-2,7-methanopyrido[1,2-a][1,4]diazonine-10-carboxamide], the figures for the EC50 in data set [1] (setting [4]), in data set [1] (setting [5]) and in data set [3] (read-out: EC50) were 20.9 nM, 0.412 nM and 1.29 nM, respectively. In data set [2], the CC50 at 5 days worked out at 7740 nM.

Turning to `C[C@@H]1C=C[C@H](C)N2C[C@H]1n1cc(C(=O)NCc3c(F)cc(F)cc3F)c(=O)c(O)c1C2=O` [Example 176, (3S,6R,7S)-12-hydroxy-3,6-dimethyl-1,11-dioxo-N-(2,4,6-trifluorobenzyl)-1,6,7,11-tetrahydro-3H-2,7-methanopyrido[1,2-a][1,4]diazonine-10-carboxamide], the EC50 was found to be 16.7 nM in data set [1] (setting [4]), 0.263 nM in data set [1] (setting [5]) and 0.829 nM in data set [3] (read-out: EC50). In addition, the CC50 at 5 days in data set [2] was determined as 7770 nM.

For `C[C@@H]1C=C[C@H](C)N2C[C@H]1n1cc(C(=O)NCc3ccc(F)cc3F)c(=O)c(O)c1C2=O` [Example 177, (3S,6R,7S)—N-(2,4-difluorobenzyl)-12-hydroxy-3,6-dimethyl-1,11-dioxo-1,6,7,11-tetrahydro-3H-2,7-methanopyrido[1,2-a][1,4]diazonine-10-carboxamide], the figures for the EC50 in data set [1] (setting [4]), in data set [1] (setting [5]) and in data set [3] (read-out: EC50) were 11.1 nM, 0.294 nM and 0.915 nM, respectively. The CC50 at 5 days in data set [2] came out at 8540 nM.

Turning to `O=C(NCc1c(F)cc(F)cc1F)c1cn2c(c(O)c1=O)C(=O)N1CC(F)CC[C@H]2C1` (stereo partly drawn) [Example 178, (7S)-4-fluoro-12-hydroxy-1,11-dioxo-N-(2,4,6-trifluorobenzyl)-1,4,5,6,7,11-hexahydro-3H-2,7-methanopyrido[1,2-a][1,4]diazonine-10-carboxamide], the EC50 in data set [1] (setting [4]) stood at 6.56 nM; in data set [1] (setting [5]) it was 0.43 nM; in data set [3] (read-out: EC50), 2.14 nM. In addition, the CC50 at 5 days in data set [2] is 16700 nM.

Take `C[C@]1(F)CCCN2C[C@H]1n1cc(C(=O)NCc3c(F)cc(F)cc3F)c(=O)c(O)c1C2=O` [Example 179, (6S,7R)-6-fluoro-12-hydroxy-6-methyl-1,11-dioxo-N-(2,4,6-trifluorobenzyl)-1,4,5,6,7,11-hexahydro-3H-2,7-methanopyrido[1,2-a][1,4]diazonine-10-carboxamide]: the EC50 in data set [1] (setting [4]) was found to be 0.803 nM; in data set [1] (setting [5]) it was 0.335 nM; in data set [3] (read-out: EC50) it was 1.49 nM. The CC50 at 5 days in data set [2] worked out at 13100 nM.

With `C[C@H]1C=C[C@H](C)N2C[C@H]1n1cc(C(=O)NCc3c(F)cc(F)cc3F)c(=O)c(O)c1C2=O` [Example 183, (3S,6S,7S)-12-hydroxy-3,6-dimethyl-1,11-dioxo-N-(2,4,6-trifluorobenzyl)-1,6,7,11-tetrahydro-3H-2,7-methanopyrido[1,2-a][1,4]diazonine-10-carboxamide], the figures for the EC50 in data set [1] (setting [4]), in data set [1] (setting [5]) and in data set [3] (read-out: EC50) were 5.71 nM, 0.262 nM and 0.869 nM, respectively. Further, the CC50 at 5 days in data set [2] is 10500 nM.

Regarding `O=C1c2c(O)c(=O)c(-c3nnc(Cc4ccc(F)cc4F)s3)cn2[C@H]2CCCCN1C2` [Example 185, (7S)-10-(5-(2,4-difluorobenzyl)-1,3,4-thiadiazol-2-yl)-12-hydroxy-4,5,6,7-tetrahydro-3H-2,7-methanopyrido[1,2-a][1,4]diazonine-1,11-dione], the values for the EC50 in data set [1] (setting [4]), in data set [1] (setting [5]) and in data set [3] (read-out: EC50) were 4.88 nM, 0.984 nM and 3.29 nM, respectively. In addition, in data set [2], the CC50 at 5 days amounted to 3550 nM.

In the case of `C[C@H]1CC[C@H](C)N2C[C@H]1n1cc(C(=O)NCc3c(F)cc(F)cc3F)c(=O)c(O)c1C2=O` [Example 186, (3S,6S,7S)-12-hydroxy-3,6-dimethyl-1,11-dioxo-N-(2,4,6-trifluorobenzyl)-1,4,5,6,7,11-hexahydro-3H-2,7-methanopyrido[1,2-a][1,4]diazonine-10-carboxamide], the values for the EC50 in data set [1] (setting [4]), in data set [1] (setting [5]) and in data set [3] (read-out: EC50) were 60.2 nM, 0.306 nM and 0.612 nM, respectively. The CC50 at 5 days in data set [2] worked out at 11400 nM.

Take `C[C@H]1CC[C@H](C)N2C[C@H]1n1cc(C(=O)NCc3ccc(F)cc3F)c(=O)c(O)c1C2=O` [Example 187, (3S,6S,7S)—N-(2,4-difluorobenzyl)-12-hydroxy-3,6-dimethyl-1,11-dioxo-1,4,5,6,7,11-hexahydro-3H-2,7-methanopyrido[1,2-a][1,4]diazonine-10-carboxamide]: the EC50 in data set [1] (setting [4]) was found to be 44 nM; in data set [1] (setting [5]), 0.383 nM; in data set [3] (read-out: EC50) it was 1.18 nM. In addition, the CC50 at 5 days in data set [2] was found to be 10800 nM.

As for `O=C(NCc1ccc(F)cc1F)c1cn2c(c(O)c1=O)C(=O)N1C[C@@H]2CC=C[C@@H]1CF` [Example 188], the values for the EC50 in data set [1] (setting [4]), in data set [1] (setting [5]) and in data set [3] were 3.48 nM, 0.421 nM and 1.19 nM, respectively. Also, the CC50 at 5 days in data set [2] was 12200 nM.

With `O=C(NCc1ccc(F)cc1F)c1cn2c(c(O)c1=O)C(=O)N1C[C@@H]2CCC[C@@H]1C(F)F` [Example 189, (3R,7S)—N-(2,4-difluorobenzyl)-3-(difluoromethyl)-12-hydroxy-1,11-dioxo-1,4,5,6,7,11-hexahydro-3H-2,7-methanopyrido[1,2-a][1,4]diazonine-10-carboxamide], the EC50 in data set [1] (setting [4]) was determined as 6.06 nM; in data set [1] (setting [5]) it was 0.411 nM; in data set [3] (read-out: EC50) it was 1.56 nM. Besides, in data set [2], the CC50 at 5 days was 12300 nM.

Consider `C[C@H]1CCCN2CC1n1cc(C(=O)NCc3c(F)cc(F)cc3F)c(=O)c(O)c1C2=O` (stereo partly drawn) [Example 190, (6S)-12-hydroxy-6-methyl-1,11-dioxo-N-(2,4,6-trifluorobenzyl)-1,4,5,6,7,11-hexahydro-3H-2,7-methanopyrido[1,2-a][1,4]diazonine-10-carboxamide], for which the EC50 was 14.2 nM in data set [1] (setting [4]), 0.434 nM in data set [1] (setting [5]) and 1.81 nM in data set [3]. Further, the CC50 at 5 days in data set [2] turned out to be 22800 nM.

For `C[C@@H]1C=C[C@H](CF)N2C[C@H]1n1cc(C(=O)NCc3ccc(F)cc3F)c(=O)c(O)c1C2=O` [Example 192, (3R,6R,7S)—N-(2,4-difluorobenzyl)-3-(fluoromethyl)-12-hydroxy-6-methyl-1,11-dioxo-1,6,7,11-tetrahydro-3H-2,7-methanopyrido[1,2-a][1,4]diazonine-10-carboxamide], the EC50 in data set [1] (setting [4]) was 6.57 nM; in data set [1] (setting [5]), 0.252 nM; in data set [3] (read-out: EC50), 0.913 nM. Further, in data set [2], the CC50 at 5 days is 5570 nM.

Consider `C[C@H]1OC[C@H](C)N2C[C@H]1n1cc(C(=O)NCc3c(F)cc(F)cc3F)c(=O)c(O)c1C2=O` [Example 195, (3S,6R,7R)-12-hydroxy-3,6-dimethyl-1,11-dioxo-N-(2,4,6-trifluorobenzyl)-1,3,4,6,7,11-hexahydro-2,7-methanopyrido[1,2-d][1,4,7]oxadiazonine-10-carboxamide], for which the EC50 in data set [1] (setting [4]) amounted to 10.4 nM; in data set [1] (setting [5]), 0.441 nM; in data set [3] (read-out: EC50), 1.73 nM. Further, the CC50 at 5 days in data set [2] turned out to be 16700 nM.

Consider `C[C@@H]1CO[C@H](C)[C@H]2CN1C(=O)c1c(O)c(=O)c(C(=O)NCc3c(F)cc(F)cc3F)cn12` [Example 196, (3R,6R,7R)-12-hydroxy-3,6-dimethyl-1,11-dioxo-N-(2,4,6-trifluorobenzyl)-1,3,4,6,7,11-hexahydro-2,7-methanopyrido[1,2-d][1,4,7]oxadiazonine-10-carboxamide], for which the EC50 stood at 14.3 nM in data set [1] (setting [4]), 0.469 nM in data set [1] (setting [5]) and 2.08 nM in data set [3] (read-out: EC50). For the same molecule, in data set [2], the CC50 at 5 days was found to be 25900 nM.

The term CC50 denotes the concentration at which the toxic effect on the cells reaches its halfway point.
